Read-outs that look alike come from different tables or passages of the source.
Assays:
[1] = human, in vivo
Description: (§1) Blood was collected over time. […] Methyl salicylate and 1-menthol are contained in large amounts in daily necessities. Therefore, the use of such daily necessities was avoided before and during the application.
(§2) The plasma concentrations of the methyl salicylate, its metabolite salicylic acid, and the 1-menthol were separately measured. The measurement was performed by liquid chromatography-mass spectrometry for the salicylic acid and by gas chromatography-mass spectrometry for the methyl salicylate and the 1-menthol. Each of the measurement methods was validated beforehand to confirm measurement reliability. Values obtained by subtracting an endogenous concentration (measurement value on 0 hour) before the application from an actual measurement value were used as plasma concentrations during the application. The Cmax and AUC0-24 were calculated according to the standard methods.
A mean was an average value from the seven individuals to be tested. This measurement of the plasma concentrations was performed according to the guideline of FDA (U.S. Food and Drug Administration) (Guidance for Industry=Bioanalytical Method Validation).

clinical = details: human, in vivo; for Cmax: plasma Cmax
Description: as §1, §2
This measurement of the plasma concentrations was performed according to the guideline of FDA (U.S. Food and Drug Administration) (Guidance for Industry=Bioanalytical Method Validation).

[2] = cited from earlier work

time within which maximum plasma concentration (Cmax) is achieved [1] [h] | AUC(0-t) (clinical; plasma AUC0-24, Mean ± S.D.) [ng·h/mL] | AUC(0-t) (clinical; plasma AUC0-24, Maximum value) [ng·h/mL] | AUC(0-t) (clinical; plasma AUC0-24, Minimum value) [ng·h/mL] | Cmax (clinical; Maximum value) [ng/mL] | Cmax (clinical; Mean ± S.D.) [ng/mL] | Cmax (clinical; Minimum value) [ng/mL] | Compound | plasma concentration of methyl salicylate ([2]; eight pieces of adhesive preparation with 74.88 mg/piece of methyl salicylate applied to a human) | plasma concentration of methyl salicylate ([2]; two pieces of adhesive preparation with 74.88 mg/piece of methyl salicylate applied to a human)
≤ 8 | 80.6 | – | – | – | – | – | CC1CCC(C(C)C)C(O)C1 (stereo not drawn) [Example 1-menthol, 1-menthol] | – | –
≤ 12 | 8850 | 24700 | 3460 | 4100 | 1290 | 531 | O=C(O)c1ccccc1O [Salicylic acid] | – | –
≤ 6 | 30.1 | 139 | 3.7 | 109 | 21.1 | 2.5 | COC(=O)c1ccccc1O [Methyl salicylate] | approximately 30 ng/mL | hardly rose
